In patent US20120190635A1, “SELECTIVE OXIDATION OF C-H BONDS OF MODIFIED SUBSTRATES BY P450 MONOOXYGENASE” (THE REGENTS OF THE UNIVERSITY OF MICHIGAN, priority 2009, published 2012):
Values after ≈ are worked out from the molar mass of the structure shown. Like-named read-outs stand apart in the source and are kept apart here.

Legend:
[1] = tested on: Multidrug resistant S. aureus (MRSA); test: antibacterial MIC, microtiter dilution; details: Staphylococcus aureus, MRSA, read-out: Minimal inhibitory concentration
[2] = molecular target: T1, PikCD50N-RhFRED (Streptomyces venezuelae, UniProt O87605, D50N); type: biochemical; details: for Number of products: Table 1
[3] = molecular target: T1, PikCD50N-RhFRED; test: substrate binding assay, PikCD50N-RhFRED
Protocol: The unnatural cyclic carbolide substrate desosaminyl cyclododecane was synthesized to mimic the structure of the natural substrate YC-17 using a recently developed synthetic strategy (Anzai Y, et al. Functional analysis of MycG and MycCI, cytochrome P450 enzymes involved in biosyntheis of mycinamicin macrolide antibiotics. Chem. Biol. 2008 15:950-959), which was subsequently employed as a general approach to derivatize diverse alcohols with desosamine (FIG. 6). The standard assay contains 5 μM PikCD50N—RhFRED, 0.5 mM substrate, 2.5 mM NADPH, 0.25 Unit of glucose-6-phosphate dehydrogenase, and 5 mM glucose-6-phosphate for NADPH regeneration in 100 μl of reaction buffer (50 mM NaH2PO4, pH 7.3, 1 mM EDTA, 0.2 mM dithioerythritol, and 10% glycerol). The reaction was carried out at 30° C. for 3 h and terminated by extraction using 3×200 μl of CHCl3. The resulting organic extract was dried by N2 and redissolved in 120 μl of methanol. The subsequent LC-MS analysis was performed on a ThermoFinnigan LTQ linear ion-trap instrument (Department of Pharmacology, University of Michigan) equipped with electrospray source and Surveyor HPLC system by using an XBridge™ C18 3.5 μm 150 mm reverse-phase HPLC column under following conditions: mobile phase (A=deionized water+0.1% formic acid, B=acetonitrile+0.1% formic acid), 20% B for 3 min, 20-100% B over 25 min, 100% B for 5 min, 100-20% B over 1 min, 20% B for 15 min; flow rate, 0.21 ml/min The substrate binding assays were performed following the previous report (Li et al., supra).
The decreased binding affinity of desosaminyl cyclododecane could result from […], an entropic penalty upon binding due to high conformational freedom of the saturated ring system, […]) lack of hydrophobic interactions between the functional groups on the macrolactone ring of […] and PikC active site residues, and/or […]) loss of some specific interactions with desosamine as observed in the co-crystal structure with PikC. […] Due to enhanced substrate conversion and ease of use in the absence of expensive exogenous redox partners, PikCD50N—RhFRED was employed to hydroxylate carbolide desosaminyl cyclododecane and all other substrates.

[4] = tested on: Kocuria rhizophila ATCC9341; test: antibacterial MIC, microtiter dilution; details: Kocuria rhizophila, ATCC9341, read-out: Minimal inhibitory concentration
[5] = tested on: selected microbial targets; test: antibacterial activity, summary in words; type: cell-based
Protocol: All measurements were performed in duplicate.
The bioactivity of 8 was compared with its synthetic hydroxylated products. Unexpectedly, upon installation of a hydroxyl group at either the C7/C8 or C6/C9 positions (the four authentic standards, each of which contains a pair of diastereomers), the products lost activity. […] Further analysis of these carbolides, and direct investigation of their presumed binding to ribosomal targets will provide important insights into the impact of PikC-mediated regioselective hydroxylation for development of new small molecules for treatment of microbial pathogens and other human diseases.

[6] = tested on: Acinetobacter baumannii; test: antibacterial MIC, microtiter dilution; details: read-out: Minimal inhibitory concentration
[7] = tested on: Staphylococcus aureus ATCC6538P; test: antibacterial MIC, microtiter dilution; details: Staphylococcus aureus, ATCC6538P, read-out: Minimal inhibitory concentration
[8] = tested on: S. aureus NorA; test: antibacterial MIC, microtiter dilution; details: Staphylococcus aureus, read-out: Minimal inhibitory concentration
[9] = tested on: Deinococcus radiodurans; test: antibacterial MIC, microtiter dilution; details: 60 h
[10] = tested on: Escherichia. coli TolC; test: antibacterial MIC, microtiter dilution; details: Escherichia coli, read-out: Minimal inhibitory concentration, E. coli W3110 TolC disruption mutant; Mueller Hinten
[11] = tested on: Bacillus subtillis DHS5333; test: antibacterial MIC, microtiter dilution; details: Bacillus, DHS5333, read-out: Minimal inhibitory concentration
[12] = read-out: Minimal inhibitory concentration, Deinococcus radiodurans, Special media, 30° C.

T1 sequence (O87605 other isoform, or with tags, fused parts or gaps D50N): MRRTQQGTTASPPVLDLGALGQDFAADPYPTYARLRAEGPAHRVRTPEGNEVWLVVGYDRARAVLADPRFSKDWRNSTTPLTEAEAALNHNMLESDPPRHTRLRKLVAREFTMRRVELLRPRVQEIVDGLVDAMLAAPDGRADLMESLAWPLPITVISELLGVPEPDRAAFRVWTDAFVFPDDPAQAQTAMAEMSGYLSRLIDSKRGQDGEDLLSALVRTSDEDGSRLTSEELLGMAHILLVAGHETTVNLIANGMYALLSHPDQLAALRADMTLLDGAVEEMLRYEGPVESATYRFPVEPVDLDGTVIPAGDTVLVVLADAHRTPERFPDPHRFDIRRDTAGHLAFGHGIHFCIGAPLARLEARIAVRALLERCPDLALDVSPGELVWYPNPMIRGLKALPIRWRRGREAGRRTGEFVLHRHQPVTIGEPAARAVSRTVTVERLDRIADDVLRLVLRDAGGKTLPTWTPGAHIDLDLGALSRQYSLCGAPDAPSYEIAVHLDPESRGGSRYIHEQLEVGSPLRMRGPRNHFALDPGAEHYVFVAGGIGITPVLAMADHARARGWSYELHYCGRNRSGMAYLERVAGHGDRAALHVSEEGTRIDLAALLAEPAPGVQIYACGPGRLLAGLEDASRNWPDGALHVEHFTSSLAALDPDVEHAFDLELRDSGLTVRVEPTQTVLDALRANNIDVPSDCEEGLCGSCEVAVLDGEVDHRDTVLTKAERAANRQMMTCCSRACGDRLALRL

Compound | MIC [1] [µM] | share of monohydroxylated products oxidized at sites remote from desosamine ([2]; C7 and C6/C8 for the 12-membered ring, C7/C8 or C6/C9 for the 13-membered ring) [%] | Number of products ([2]; PikCD50N-RhFRED) | Kd [3] [µM] | MIC [4] [µM] | antibacterial activity in words [5] | MIC [6] [µM] | MIC [7] [µM] | MIC [8] [µM] | MIC [9, 12] [µM] | MIC [10] [µM] | MIC [11] [µM] | number of oxidized products ([2]; PikCD50N-RhFRED) | MIC ([9]; read-out: Minimal inhibitory concentration) [µM]
CC1CC(N(C)C)C(O)C(OC2CCCCCCCCCCCC2)O1 (stereo not shown) [Compound 8, 2-(Cyclotridecyloxy)-4-(dimethylamino)-6-methyltetrahydro-2H-pyran-3-ol] | 200 (≈ 71.1 µg/mL) | 94 | 6 | 218 | 50 (≈ 17.8 µg/mL) | displayed some inhibitory activities | > 400 | 400 (≈ 142 µg/mL) | 200 (≈ 71.1 µg/mL) | 100 (≈ 35.6 µg/mL) | 50 (≈ 17.8 µg/mL) | 200 (≈ 71.1 µg/mL) | – | –
CC1CC(N(C)C)C(O)C(OC2CCCCCCCCCCCCC2)O1 (stereo not shown) [Compound 10, 2-(cyclotetradecyloxy)-4-(dimethylamino)-6-methyltetrahydro-2H-pyran-3-ol] | 400 (≈ 148 µg/mL) | – | 6 | 289 | 50 (≈ 18.5 µg/mL) | displayed some inhibitory activities | > 400 | > 400 | 400 (≈ 148 µg/mL) | 50 (≈ 18.5 µg/mL) | 50 (≈ 18.5 µg/mL) | 200 (≈ 73.9 µg/mL) | – | –
CC1CC(N(C)C)C(O)C(OC2CCCCCCCCCCCCCC2)O1 (stereo not shown) [Compound 12, 2-(cyclopentadecyloxy)-4-(dimethylamino)-6-methyltetrahydro-2H-pyran-3-ol] | 100 (≈ 38.4 µg/mL) | – | 9 | 243 | 50 (≈ 19.2 µg/mL) | displayed some inhibitory activities | > 400 | 200 (≈ 76.7 µg/mL) | 100 (≈ 38.4 µg/mL) | 50 (≈ 19.2 µg/mL) | 50 (≈ 19.2 µg/mL) | 100 (≈ 38.4 µg/mL) | – | –
CCCCCCC#CCCOC1OC(C)CC(N(C)C)C1O (stereo not shown) [Compound 17, 2-(Dec-3-ynyloxy)-4-(dimethylamino)-6-methyltetrahydro-2H-pyran-3-ol] | > 400 | – | 5 | 2900 | > 400 | – | > 400 | > 400 | > 400 | > 400 | > 400 | > 400 | – | –
CC1CC(N(C)C)C(O)C(Oc2ccc3ccc4cccc5ccc2c3c45)O1 (stereo not shown) [Compound 19, 4-(Dimethylamino)-6-methyl-2-(pyren-1-yloxy)tetrahydro-2H-pyran-3-ol] | 25 (≈ 9.39 µg/mL) | – | 1 | > 5000 | 25 (≈ 9.39 µg/mL) | – | 100 (≈ 37.5 µg/mL) | 25 (≈ 9.39 µg/mL) | 25 (≈ 9.39 µg/mL) | – | 25 (≈ 9.39 µg/mL) | 6.2 (≈ 2.33 µg/mL) | single | 25 (≈ 9.39 µg/mL)
